According to patent US20230407243A1, “GENETIC PLATFORM TO INVESTIGATE THE FUNCTIONS OF BACTERIAL DRUG EFFLUX PUMPS” (priority 2022, published 2023):
Where two headings read alike, the source gives them in different places.

Assays:
Type in all cases: cell-based, Escherichia coli
[1] = system: EKO-35 araC::acrB Pore; assay: MIC susceptibility profiling, porinated efflux platform; details: for Fold changes of MICs: EKO-35 araC::acr-B Pore compared to EKO-35-Pore; for MIC: Escherichia coli, Table 14A, porinated, technical duplicate, read-out: Minimum inhibitory concentration, EKO-35 araC::acrB Pore
Procedure, shortened: (§1)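 MIC values come from background-corrected OD600 readings (pre-incubation OD subtracted) after 18 h at 37 °C and 900 rpm in MHB II. Compounds were tested in duplicate as 2-fold dilutions. The inoculum came from 18 h LB cultures adjusted to OD600 ~1.0 and diluted 1/2000, and the pore-bearing strains were vancomycin-checked beforehand.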

[2] = system: EKO-35 araC::mexCD Pore; assay: as above; details: for Fold changes of MICs: EKO-35 araC::mexCD Pore compared to EKO-35-Pore; for MIC: Escherichia coli, EKO-35 araC::mexCD Pore, technical duplicate, read-out: Minimum inhibitory concentration
Procedure, shortened: as §1

[3] = system: EKO-35 araC::mdtBC Pore; assay: as above; details: for Fold changes of MICs: EKO-35 araC::mdtBC Pore compared to EKO-35-Pore; for MIC: Escherichia coli, EKO-35 araC::mdtBC Pore, technical duplicate, read-out: Minimum inhibitory concentration
Procedure, shortened: as §1

[4] = system: EKO-35 araC::acrBD408A Pore; assay: as above; details: for Fold changes of MICs: EKO-35 araC::acrBD408A Pore compared to EKO-35-Pore; for MIC: Escherichia coli, EKO-35 araC::acrBD408A Pore, technical duplicate, read-out: Minimum inhibitory concentration
Procedure, shortened: as §1

[5] = system: EKO-35 araC::mdtEF Pore; assay: as above; details: for Fold changes of MICs: EKO-35 araC::mdtEF Pore compared to EKO-35-Pore; for MIC: Escherichia coli, Table 14A, porinated, technical duplicate, read-out: Minimum inhibitory concentration, EKO-35 araC::mdtEF Pore
Procedure, shortened: as §1

[6] = system: EKO-35 araC::acrD Pore; assay: as above; details: for Fold changes of MICs: EKO-35 araC::acrD Pore compared to EKO-35-Pore; for MIC: Escherichia coli, Table 14A, porinated, technical duplicate, read-out: Minimum inhibitory concentration, EKO-35 araC::acrD Pore
Procedure, shortened: as §1

[7] = system: EKO-35 araC::macAB Pore; assay: as above; details: for Fold changes of MICs: EKO-35 araC::macAB Pore compared to EKO-35-Pore; for MIC: Escherichia coli, EKO-35 araC::macAB Pore, technical duplicate, read-out: Minimum inhibitory concentration
Procedure, shortened: as §1

[8] = system: EKO-35 araC::emrAB Pore; assay: as above; details: for Fold changes of MICs: EKO-35 araC::emrAB Pore compared to EKO-35-Pore; for MIC: Escherichia coli, EKO-35 araC::emrAB Pore, technical duplicate, read-out: Minimum inhibitory concentration
Procedure, shortened: as §1

[9] = system: EKO-35 araC::emrKY Pore; assay: as above; details: for Fold changes of MICs: EKO-35 araC::emrKY Pore compared to EKO-35-Pore; for MIC: Escherichia coli, EKO-35 araC::emrKY Pore, technical duplicate, read-out: Minimum inhibitory concentration
Procedure, shortened: as §1

[10] = system: EKO-35 araC::acrEF Pore; assay: as above; details: for Fold changes of MICs: EKO-35 araC::acrEF Pore compared to EKO-35-Pore; for MIC: Escherichia coli, Table 14A, porinated, technical duplicate, read-out: Minimum inhibitory concentration, EKO-35 araC::acrEF Pore
Procedure, shortened: as §1

[11] = system: EKO-35-Pore; assay: MIC susceptibility profiling, porinated strain; details: for Fold changes of MICs: EKO-35-Pore compared to EKO-35-Pore (reference); for MIC: Escherichia coli, technical duplicate
Procedure, shortened: as §1

[12] = system: wild-type (WT) K-12-Pore; assay: microbe, parasite or virus in culture; details: Escherichia coli, technical duplicate
Procedure, shortened: as §1

[13] = system: ΔtolC-Pore; assay: microbe, parasite or virus in culture; details: for MIC: Escherichia coli, 18 h, read-out: Minimum inhibitory concentration, ΔtolC-Pore; for Minimum inhibitory concentration (MIC), Pore ΔtolC: Table 10, with pore, technical duplicate
Procedure, shortened: as §1

[14] = system: E. coli EKO-35; assay: microbe, parasite or virus in culture; details: for Fold change of MICs: EKO-35 compared to EKO-35 (reference); for MIC: Escherichia coli, EKO35, technical duplicate
Procedure, shortened: (§2)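 Overnight LB cultures resuspended in PBS to OD600 ~1.0, diluted 1/2000 into MHB II, and added to 2-fold serial compound dilutions in duplicate with DMSO controls. Incubated 18 h at 37° C. with 900 rpm shaking; OD600 read before and after, background subtracted, to derive MIC.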

[15] = system: E. coli ΔtolC; assay: microbe, parasite or virus in culture; details: for MIC: Escherichia coli, 18 h, read-out: Minimum Inhibitory Concentration, ΔtolC; for Minimum inhibitory concentration (MIC), ΔtolC: Table 10, without pore, technical duplicate
Procedure, shortened: as §2

[16] = system: wild-type E. coli K-12 str. BW25113; assay: microbe, parasite or virus in culture; details: Escherichia coli, BW25113, technical duplicate
Procedure, shortened: as §2

[17] = system: EKO-35 araC::mdtEF; assay: MIC susceptibility profiling, efflux platform; details: for Fold change of MICs: EKO-35 araC::mdtEF compared to EKO-35; for MIC: Escherichia coli, Table 13A, non-porinated, technical duplicate, read-out: Minimum Inhibitory Concentration, EKO-35 araC::mdtEF
Procedure, shortened: as §2

[18] = system: EKO-35 araC::mdtBC; assay: MIC susceptibility profiling, efflux platform; details: for Fold change of MICs: EKO-35 araC::mdtBC compared to EKO-35; for MIC: Escherichia coli, Table 13B, non-porinated, technical duplicate, read-out: Minimum Inhibitory Concentration, EKO-35 araC::mdtBC
Procedure, shortened: as §2

[19] = Table 10, with pore, read-out: Minimum inhibitory concentration (MIC), Pore EKO-35
[20] = Table 14A, porinated, read-out: Minimum inhibitory concentration, EKO-35-Pore
[21] = Table 10, with pore, read-out: Minimum inhibitory concentration (MIC), Pore K-12
[22] = Table 14A, porinated, read-out: Minimum inhibitory concentration, K-12 (WT)-Pore
[23] = Table 10, without pore, read-out: Minimum inhibitory concentration (MIC), EKO-35
[24] = Table 13A, non-porinated, read-out: Minimum Inhibitory Concentration, EKO-35
[25] = Table 10, without pore, read-out: Minimum inhibitory concentration (MIC), K-12
[26] = Table 13A, non-porinated, read-out: Minimum Inhibitory Concentration, K-12

Structure (SMILES)	Fold changes of MICs [1]	Fold changes of MICs [2]	MIC [2]	Fold changes of MICs [3]	MIC [3]	Fold changes of MICs [4]	MIC [4]	Fold changes of MICs [5]	MIC [5]	Fold changes of MICs [6]	MIC [6]	Fold changes of MICs [7]	Fold changes of MICs [8]	MIC [8]	Fold changes of MICs [9]	MIC [9]	Fold changes of MICs [10]	MIC [10]	Fold changes of MICs [11]	MIC [11, 19]	other results
NC[C@H]1O[C@H](O[C@H]2[C@H](O)[C@@H](O[C@H]3O[C@H](CO)[C@@H](O)[C@H](N)[C@H]3O)[C@H](N)C[C@@H]2N)[C@H](O)[C@@H](O)[C@@H]1O [kanamycin]	2 fold	1 fold	1.56 µg/mL	1 fold	1.56 µg/mL	1 fold	0.781 µg/mL	1 fold	1.56 µg/mL	1 fold	1.56 µg/mL	2 fold	1 fold	1.56 µg/mL	1 fold	1.56 µg/mL	1 fold	1.56 µg/mL	1 fold	1.56 µg/mL	MIC [11, 20]: 1.56 µg/mL; MIC [12, 21]: 3.12 µg/mL; MIC [12, 22]: 3.12 µg/mL; MIC [13]: 1.56 µg/mL; Minimum inhibitory concentration (MIC), Pore ΔtolC [13]: 1.563 µg/mL; Fold change of MICs [14]: 1 fold; MIC [14, 23]: 3.12 µg/mL; MIC [14, 24]: 3.12 µg/mL; MIC [15]: 1.56 µg/mL; Minimum inhibitory concentration (MIC), ΔtolC [15]: 1.563 µg/mL; MIC [16, 25]: 3.12 µg/mL; MIC [16, 26]: 3.12 µg/mL; Fold change of MICs [17]: 1 fold; Fold change of MICs [18]: 1 fold
CC(=O)NC[C@H]1CN(c2ccc(N3CCOCC3)c(F)c2)C(=O)O1 [linezolid]	16 fold	2 fold	7.81 µg/mL	1 fold	3.91 µg/mL	1 fold	3.91 µg/mL	2 fold	7.81 µg/mL	2 fold	7.81 µg/mL	1 fold	2 fold	7.81 µg/mL	1 fold	3.91 µg/mL	2 fold	7.81 µg/mL	1 fold	3.91 µg/mL	MIC [1]: 62.5 µg/mL; MIC [7]: 3.91 µg/mL; MIC [11, 20]: 3.91 µg/mL; MIC [12, 21]: 125 µg/mL; MIC [12, 22]: 125 µg/mL; MIC [13]: 3.91 µg/mL; Minimum inhibitory concentration (MIC), Pore ΔtolC [13]: 3.906 µg/mL; Fold change of MICs [14]: 1 fold; MIC [14, 23]: 7.81 µg/mL; MIC [14, 24]: 7.81 µg/mL; MIC [15]: 7.81 µg/mL; Minimum inhibitory concentration (MIC), ΔtolC [15]: 7.813 µg/mL; MIC [16, 25]: 500 µg/mL; MIC [16, 26]: 500 µg/mL; Fold change of MICs [17]: 1 fold; MIC [17]: 3.91 µg/mL; Fold change of MICs [18]: 1 fold; MIC [18]: 3.91 µg/mL
CN(C)c1ccc(O)c2c1C[C@H]1C[C@H]3[C@H](N(C)C)C(O)=C(C(N)=O)C(=O)[C@@]3(O)C(O)=C1C2=O [minocycline]	8 fold	1 fold	0.049 µg/mL	1 fold	0.049 µg/mL	1 fold	0.049 µg/mL	2 fold	0.098 µg/mL	2 fold	0.098 µg/mL	1 fold	1 fold	0.049 µg/mL	1 fold	0.049 µg/mL	2 fold	0.098 µg/mL	1 fold	0.049 µg/mL	MIC [1]: 0.391 µg/mL; MIC [7]: 0.049 µg/mL; MIC [11, 20]: 0.049 µg/mL; MIC [12, 21]: 0.781 µg/mL; MIC [12, 22]: 0.781 µg/mL; MIC [13]: 0.098 µg/mL; Minimum inhibitory concentration (MIC), Pore ΔtolC [13]: 0.098 µg/mL; Fold change of MICs [14]: 1 fold; MIC [14, 23]: 0.049 µg/mL; MIC [14, 24]: 0.049 µg/mL; MIC [15]: 0.098 µg/mL; Minimum inhibitory concentration (MIC), ΔtolC [15]: 0.098 µg/mL; MIC [16, 25]: 0.781 µg/mL; MIC [16, 26]: 0.781 µg/mL; Fold change of MICs [17]: 1 fold; MIC [17]: 0.049 µg/mL; Fold change of MICs [18]: 1 fold; MIC [18]: 0.049 µg/mL
